# Target: T1, EGFR (Homo sapiens, UniProt P00533)
# T1 construct: endogenous in cells; host or cells: A431 cells (lysate, captured with SUMO1 anti-EGFR antibody)
# Assay: Biochemical EGFR Assay
# Design: concentration or dose not given beside the values
# Conditions: protocol P.167
# Procedure, shortened: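 Readout is ABTS absorbance at 410 nm after anti-phosphotyrosine and HRP-antibody detection of EGFR autophosphorylation. The kinase was immunocaptured from A431 lysate, exposed 30 min to test compound diluted 1:10 in TBS, then phosphorylated for 5 min with ATP/MnCl2 before an EDTA stop.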
# T1 sequence (P00533 25-1210): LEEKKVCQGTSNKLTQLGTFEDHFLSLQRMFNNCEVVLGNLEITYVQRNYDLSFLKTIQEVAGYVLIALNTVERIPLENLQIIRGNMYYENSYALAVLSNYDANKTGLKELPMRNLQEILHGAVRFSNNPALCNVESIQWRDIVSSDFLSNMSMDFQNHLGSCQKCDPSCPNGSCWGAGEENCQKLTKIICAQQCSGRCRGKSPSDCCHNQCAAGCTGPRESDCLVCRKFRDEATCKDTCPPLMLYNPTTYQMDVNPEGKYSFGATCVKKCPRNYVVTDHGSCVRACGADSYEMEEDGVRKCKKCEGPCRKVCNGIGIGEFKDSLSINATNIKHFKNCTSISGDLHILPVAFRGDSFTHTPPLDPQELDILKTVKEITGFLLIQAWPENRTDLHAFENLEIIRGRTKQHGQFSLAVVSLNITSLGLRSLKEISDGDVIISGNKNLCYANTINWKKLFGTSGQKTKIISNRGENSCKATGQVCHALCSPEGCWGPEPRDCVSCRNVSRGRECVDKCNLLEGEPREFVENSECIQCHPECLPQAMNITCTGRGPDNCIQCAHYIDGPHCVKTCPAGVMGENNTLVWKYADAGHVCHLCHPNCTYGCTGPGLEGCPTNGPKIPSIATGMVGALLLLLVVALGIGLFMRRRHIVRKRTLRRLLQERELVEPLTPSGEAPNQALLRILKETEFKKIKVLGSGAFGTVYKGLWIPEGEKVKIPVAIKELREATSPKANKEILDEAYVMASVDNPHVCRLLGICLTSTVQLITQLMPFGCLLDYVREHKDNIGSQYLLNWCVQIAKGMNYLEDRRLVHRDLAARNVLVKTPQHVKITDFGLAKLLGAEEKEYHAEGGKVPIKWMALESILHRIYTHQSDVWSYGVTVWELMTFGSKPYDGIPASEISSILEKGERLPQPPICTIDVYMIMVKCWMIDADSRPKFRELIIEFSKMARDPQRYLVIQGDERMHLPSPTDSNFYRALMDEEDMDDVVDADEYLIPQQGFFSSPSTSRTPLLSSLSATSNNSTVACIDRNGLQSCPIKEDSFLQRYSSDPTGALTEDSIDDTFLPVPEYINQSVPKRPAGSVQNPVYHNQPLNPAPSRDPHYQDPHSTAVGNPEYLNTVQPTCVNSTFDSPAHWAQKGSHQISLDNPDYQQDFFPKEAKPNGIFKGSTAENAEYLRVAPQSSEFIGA
row,Compound,Biochem EGFR % Inhibition (P.167)
1,Cc1c(Br)cc(Br)c2c1C(=Cc1cccc(F)c1)C(=O)N2 [10736/H07],52.2%
2,Cc1c(Br)cc(Br)c2c1C(=Cc1ccccc1F)C(=O)N2 [10736/H08],−20.2%
3,CCc1ccc(C=C2C(=O)Nc3c(Br)cc(Br)c(C)c32)cc1 [10736/H09],35.7%
4,COc1cccc(C=C2C(=O)Nc3c(Br)cc(Br)c(C)c32)c1 [10736/H10],45.6%
5,Cc1c(Br)cc(Br)c2c1C(=Cc1ccccc1Cl)C(=O)N2 [10736/H11],11.1%
6,CCOc1ccc(C=C2C(=O)Nc3c(Br)cc(Br)cc32)cc1 [10737/A02],37.3%
7,Cc1ccc(C=C2C(=O)Nc3c(Br)cc(Br)cc32)c(C)c1 [10737/A03],12.8%
8,O=C1Nc2c(Br)cc(Br)cc2C1=Cc1cc(F)ccc1F [10737/A04],29.4%
9,O=C1Nc2c(Br)cc(Br)cc2C1=Cc1cccc(F)c1F [10737/A05],26.4%
10,COc1ccc(C=C2C(=O)Nc3c(Br)cc(Br)cc32)cc1F [10737/A06],37.3%
11,Cc1ccc(C)c(C=C2C(=O)Nc3c(Br)cc(Br)cc32)c1 [10737/A07],25.3%
12,O=C1Nc2c(Br)cc(Br)cc2C1=Cc1ccc2ccccc2c1 [10737/A08],35.8%
13,O=C1Nc2c(Br)cc(Br)cc2C1=Cc1ccc(Oc2ccccc2)cc1 [10737/A09],36.0%
14,CC(C)(C)c1ccc(Oc2cccc(C=C3C(=O)Nc4c(Br)cc(Br)cc43)c2)cc1 [10737/A10],10.9%
15,O=C1Nc2c(Br)cc(Br)cc2C1=Cc1cccc(Oc2cccc(C(F)(F)F)c2)c1 [10737/A11],10.8%
16,CCOc1ccc(C=C2C(=O)Nc3ccc(I)cc32)cc1 [10737/B02],−34.0%
17,Cc1ccc(C=C2C(=O)Nc3ccc(I)cc32)c(C)c1 [10737/B03],−34.9%
18,O=C1Nc2ccc(I)cc2C1=Cc1cc(F)ccc1F [10737/B04],7.1%
19,O=C1Nc2ccc(I)cc2C1=Cc1cccc(F)c1F [10737/B05],17.4%

row,Compound,Biochem EGFR % Inhibition (P.167)
1,COc1ccc(C=C2C(=O)Nc3ccc(I)cc32)cc1F [10737/B06],22.5%
2,Cc1ccc(C)c(C=C2C(=O)Nc3ccc(I)cc32)c1 [10737/B07],18.1%
3,O=C1Nc2ccc(I)cc2C1=Cc1ccc2ccccc2c1 [10737/B08],15.4%
4,O=C1Nc2ccc(I)cc2C1=Cc1ccc(Oc2ccccc2)cc1 [10737/B09],26.4%
5,CC(C)(C)c1ccc(Oc2cccc(C=C3C(=O)Nc4ccc(I)cc43)c2)cc1 [10737/B10],−7.3%
6,O=C1Nc2ccc(I)cc2C1=Cc1cccc(Oc2cccc(C(F)(F)F)c2)c1 [10737/B11],−9.9%
7,CCOc1ccc(C=C2C(=O)Nc3ccc(Br)c(C)c32)cc1 [10737/C02],−22.0%
8,Cc1ccc(C=C2C(=O)Nc3ccc(Br)c(C)c32)c(C)c1 [10737/C03],−0.7%
9,Cc1c(Br)ccc2c1C(=Cc1cc(F)ccc1F)C(=O)N2 [10737/C04],14.4%
10,Cc1c(Br)ccc2c1C(=Cc1cccc(F)c1F)C(=O)N2 [10737/C05],13.3%
11,COc1ccc(C=C2C(=O)Nc3ccc(Br)c(C)c32)cc1F [10737/C06],29.0%
12,Cc1ccc(C)c(C=C2C(=O)Nc3ccc(Br)c(C)c32)c1 [10737/C07],27.9%
13,Cc1c(Br)ccc2c1C(=Cc1ccc3ccccc3c1)C(=O)N2 [10737/C08],16.3%
14,Cc1c(Br)ccc2c1C(=Cc1ccc(Oc3ccccc3)cc1)C(=O)N2 [10737/C09],13.0%
15,Cc1c(Br)ccc2c1C(=Cc1cccc(Oc3ccc(C(C)(C)C)cc3)c1)C(=O)N2 [10737/C10],−15.6%
16,Cc1c(Br)ccc2c1C(=Cc1cccc(Oc3cccc(C(F)(F)F)c3)c1)C(=O)N2 [10737/C11],−5.6%
17,CCOc1ccc(C=C2C(=O)Nc3ccc(S(=O)(=O)NC)cc32)cc1 [10737/D02],−14.7%
18,CNS(=O)(=O)c1ccc2c(c1)C(=Cc1ccc(C)cc1C)C(=O)N2 [10737/D03],−21.5%
19,CNS(=O)(=O)c1ccc2c(c1)C(=Cc1cc(F)ccc1F)C(=O)N2 [10737/D04],−27.7%

row,Compound,Biochem EGFR % Inhibition (P.167)
1,CNS(=O)(=O)c1ccc2c(c1)C(=Cc1cccc(F)c1F)C(=O)N2 [10737/D05],17.9%
2,CNS(=O)(=O)c1ccc2c(c1)C(=Cc1ccc(OC)c(F)c1)C(=O)N2 [10737/D06],33.8%
3,CNS(=O)(=O)c1ccc2c(c1)C(=Cc1cc(C)ccc1C)C(=O)N2 [10737/D07],16.1%
4,CNS(=O)(=O)c1ccc2c(c1)C(=Cc1ccc3ccccc3c1)C(=O)N2 [10737/D08],5.6%
5,CNS(=O)(=O)c1ccc2c(c1)C(=Cc1ccc(Oc3ccccc3)cc1)C(=O)N2 [10737/D09],13.7%
6,CNS(=O)(=O)c1ccc2c(c1)C(=Cc1cccc(Oc3ccc(C(C)(C)C)cc3)c1)C(=O)N2 [10737/D10],−15.0%
7,CNS(=O)(=O)c1ccc2c(c1)C(=Cc1cccc(Oc3cccc(C(F)(F)F)c3)c1)C(=O)N2 [10737/D11],−2.3%
8,CCOc1ccc(C=C2C(=O)Nc3ccc(S(=O)(=O)Nc4ccc(C(F)(F)F)cc4)cc32)cc1 [10737/E02],6.7%
9,Cc1ccc(C=C2C(=O)Nc3ccc(S(=O)(=O)Nc4ccc(C(F)(F)F)cc4)cc32)c(C)c1 [10737/E03],−4.5%
10,O=C1Nc2ccc(S(=O)(=O)Nc3ccc(C(F)(F)F)cc3)cc2C1=Cc1cc(F)ccc1F [10737/E04],15.4%
11,O=C1Nc2ccc(S(=O)(=O)Nc3ccc(C(F)(F)F)cc3)cc2C1=Cc1cccc(F)c1F [10737/E05],−8.6%
12,COc1ccc(C=C2C(=O)Nc3ccc(S(=O)(=O)Nc4ccc(C(F)(F)F)cc4)cc32)cc1F [10737/E06],−14.1%
13,Cc1ccc(C)c(C=C2C(=O)Nc3ccc(S(=O)(=O)Nc4ccc(C(F)(F)F)cc4)cc32)c1 [10737/E07],−12.3%
14,O=C1Nc2ccc(S(=O)(=O)Nc3ccc(C(F)(F)F)cc3)cc2C1=Cc1ccc2ccccc2c1 [10737/E08],−7.8%
15,O=C1Nc2ccc(S(=O)(=O)Nc3ccc(C(F)(F)F)cc3)cc2C1=Cc1ccc(Oc2ccccc2)cc1 [10737/E09],−0.7%
16,CC(C)(C)c1ccc(Oc2cccc(C=C3C(=O)Nc4ccc(S(=O)(=O)Nc5ccc(C(F)(F)F)cc5)cc43)c2)cc1 [10737/E10],−4.2%
17,O=C1Nc2ccc(S(=O)(=O)Nc3ccc(C(F)(F)F)cc3)cc2C1=Cc1cccc(Oc2cccc(C(F)(F)F)c2)c1 [10737/E11],−33.4%
18,CCOc1ccc(C=C2C(=O)Nc3ccc(S(=O)(=O)N4CCOCC4)cc32)cc1 [10737/F02],21.4%
19,Cc1ccc(C=C2C(=O)Nc3ccc(S(=O)(=O)N4CCOCC4)cc32)c(C)c1 [10737/F03],−3.1%
